The nature of this assay: Binding affinity to Hsp70 nucleotide binding domain in human BT474 cells.

Data on 1 molecule can be found in BindingDB's records for doi:10.1021/jm100342z (Vernalis R&D, 2010).

`N#Cc1ccc(COC[C@H]2O[C@@H](n3c(NCc4ccc(Cl)c(Cl)c4)nc4c(N)ncnc43)[C@H](O)[C@@H]2O)cc1` [adenosine-derived inhibitor (Grp78), 13] showed an IC50 of 10.4 µM.
